Blank lines part the entries; values can stand above or below the compound they belong to.
Tests used:
BTK = BTK (Homo sapiens, UniProt Q06187); test: Time course of BTK degradation in Ramos and Mino cells; type: cell-based; set-up: endogenous in cells; host or cells: Mino (ATCC CRL-3000), Ramos (ATCC CRL-1596), K562 (NCI-60); conditions: 100 nM PROTAC, Ramos cells (RC-3: Mino cells)
Procedure: We followed the rate of BTK degradation facilitated by this compound series via a time course experiment in Ramos and Mino cells (Supporting Figure 3). The rates of degradation correlated well with the DC50 values observed after 24 h, with NC-1, IR-1, IR-2, and RC-3 degrading BTK within 2–4 h, while RC-2 and RC-1 required 6–24 h to reach maximum degradation.
Ramos (ATCC, CRL-1596), Mino (ATCC, CRL-3000), or K562 (NCI-60) cell lines were counted and diluted to 10^6 cell/mL, using 1 mL per well in a 24-well plate, and U2OS (ATCC HTB-96) cells overexpressing human BTK WT or C481S mutant were grown using 2 mL in a six-well plate (see Supporting Information). Cells were incubated with 1% DMSO or compound in indicated concentrations for 24 h unless indicated differently, or cells were left untreated. Lysates were prepared as previously described,[29] and samples were measured for total protein quantification by bicinchoninic acid (BCA) assay (#23225 ThermoFisher Scientific) supplemented with 4× loading buffer including 20 mM DTT, heated to 70 °C for 10 min, loaded into 4% SDS-PAGE gel, run for 45 min at 140 mV, then transferred into a nitrocellulose membrane (Biorad) using a Trans-Blot Turbo transfer system (Biorad). The membrane was stained with Ponceau (Sigma) to validate transfer for 10 min in gentle agitation then destained for 1 h with MQ water. The membrane was blocked with Licor blocking buffer (LIC927-70001) for 1 h, washed three times for 5 min with TBS-T, incubated with primary antibody BTK (D3H5) rabbit mAb (CST; 8547 S) overnight (16 h) at 4 °C, washed three times for 5 min with TBS-T, and incubated with primary antibody against β-actin (CST; 3700) for 1 h at 25 °C. Membrane was washed three times for 5 min with TBS-T, incubated with fluorescent secondary antibodies anti-mouse IgG Alexa Fluor 647 (CST: 4410S) and anti-rabbit-IgG IRDye 800(LICOR: 926-32211) for 1 h, then washed three times for 5 min with TBS-T, dried, and immediately imaged and analyzed using Licor Odyssey CLx. Prism (GraphPad) software was used to calculate degradation levels. We used second-order polynomial fits to estimate DC50 and Dmax values.
Supplementary Figure 3: BTK degradation time dependency.
Ramos (PI3I, RC-1, I R-1, R C-2, I R-2, NC-1) or Mino ( RC-3) cells were treated with 100 nM of PROTAC or DMSO for indicated times, subsequently harvested for BTK levels measurement via western blot.
(1 picture or pasted object on this page, not shown here)

Ramos cells = test: Metabolomic quantification of PROTAC cellular concentration; type: in vitro ADME, human; conditions: 2 hours; for Effective cellular concentration: 100 nM compound; for effective cellular concentration relative to IR-2 / effective cellular concentration relative to RC-2: 100 nM
Procedure: Raw data were analyzed using the MaxQuant software suite 1.6.0.16
(www.maxquant.org) with the Andromeda search engine2. The higher-energy collisional dissociation (HCD) MS/MS spe ctra were searched against an in silico tryptic digest of Homo sapiens proteins from the UniProt/Swiss-Prot sequence databas e (v. July 2019), including common contaminant proteins. All MS/MS spectra were searched with the following MaxQuant parameters: acetyl (protein N -terminus) and methionine oxidation as variable modifications; cysteine carbamidomethylation was set as fixed modification for all samples, exc ept for the SDT samples in which case carbamidomethylation was set as variable modification; max 2 missed cleavages; and precursors were initially matched to 4. 5 ppm tolerance and 20 ppm for fragment spectra. Peptide spectrum matches and proteins were automatically filtered to a 1% false discovery rate based on Andromeda score, pep tide length, and individual peptide mass errors. Processing was conducted without a match between runs.
Proteins were identified and quantified based on at least two unique peptides and based on the label -free quantification (LFQ) 3 values reported by Ma xQu ant. Every data set contained three sets of four replicates (one set for DMSO treated samples, one set for 50 nM and one set for 100 nM). Proteins were excluded from analysis if within all three sets, there were less than three samples with directly detect ed and quantified protein. After this filtering step, missing values were replaced from a normal distribution.
Sample preparation: 106 Ramos cells were treated in three replicates with 100 nM compound for 2 hours. Cells were then washed twice by centrifuge at 200 rcf, 4°C for 5 minutes, removing the supernatant and washed with ice cold PBS. Samples were then centrifuged at 200 rcf, 4°C for 5 minutes, then supernatant was removed and samples were frozen at -80°C. Samples were dispersed in 100 µl of PBS. From each sample, 20 µ l were mixed with 20 µl of 10% SDS in 50 mM ammonium bicarbonate, heated to 96 ° C for 5 minutes, and the protein concentration was measured by BCA ass ay. Another 75 µ l were mixed with 0.5 mL of 50% acetonitrile:water, sonicated 3 times 10 second s on ice, centrifuged for 10 minutes at 15000 rpm at 4°C, and the supernatant was transferred to a new tube and lyophilized.
The residue was dissolved in 25% acetonitrile in water in a volume calculated from the BCA assay to obtain a con centration equivalent to 1.09 µg / µl protein. The samples were centrifuged at 21,000 g for 5 min utes to remove insoluble material. Standard curves from 0.1-100 ng/mL for each compound were used for quantitation.
The LC–MS/MS instrument consi sted of an Acquit y I-class UPLC system (Waters) and Xevo TQ-XS triple quadrupole mass spectrometer (Waters) equipped with an electrospray ion source. Chromatographic separation was done on UPLC BEH C18 column (50mm × 2.1mm, 1.7-µm, Waters) using 50-100% gradient of 95%-aqueous acetonitrile with 0.1% formic acid in aqueous 0.1% formic acid during 2.5 minut e s, with a flow rate of 0. 3 mL min−1 and column temperature 30°C. Samples kept at 10°C were automatically injected in a volume of 3µl.
MS parameters (positive ion mode): capillary voltage - 2. 0kV, source temperature - […]
Targeting BTK in CLL cells
After signing an informed consent form approved by the Tel Aviv Medical Center IRB according to the Helsinki Accords, blood samples were collected from pat ients fulfilling the standard criteria for CLL. Peripheral blood mononuclear cells (PBMC) were isolated by Ficoll (Uppsala, Sweden) density-gradient centrifugation. Viable frozen cells were kept in FCS (Biological Industries, Beit-Haemek, Israel) containing 10% DMSO (Merck, Darmstadt, Germany) and stored in liquid nitrogen. Before use, frozen cells were thawed and cultured at 37°C, 5% CO 2, in RPMI medium supplemented with 10% FCS, penicillin, streptomycin, and L-glutamine (all from Biological Industries, Be it-Haemek, Israel.) […]

BTK, sequence (Q06187 whole entry): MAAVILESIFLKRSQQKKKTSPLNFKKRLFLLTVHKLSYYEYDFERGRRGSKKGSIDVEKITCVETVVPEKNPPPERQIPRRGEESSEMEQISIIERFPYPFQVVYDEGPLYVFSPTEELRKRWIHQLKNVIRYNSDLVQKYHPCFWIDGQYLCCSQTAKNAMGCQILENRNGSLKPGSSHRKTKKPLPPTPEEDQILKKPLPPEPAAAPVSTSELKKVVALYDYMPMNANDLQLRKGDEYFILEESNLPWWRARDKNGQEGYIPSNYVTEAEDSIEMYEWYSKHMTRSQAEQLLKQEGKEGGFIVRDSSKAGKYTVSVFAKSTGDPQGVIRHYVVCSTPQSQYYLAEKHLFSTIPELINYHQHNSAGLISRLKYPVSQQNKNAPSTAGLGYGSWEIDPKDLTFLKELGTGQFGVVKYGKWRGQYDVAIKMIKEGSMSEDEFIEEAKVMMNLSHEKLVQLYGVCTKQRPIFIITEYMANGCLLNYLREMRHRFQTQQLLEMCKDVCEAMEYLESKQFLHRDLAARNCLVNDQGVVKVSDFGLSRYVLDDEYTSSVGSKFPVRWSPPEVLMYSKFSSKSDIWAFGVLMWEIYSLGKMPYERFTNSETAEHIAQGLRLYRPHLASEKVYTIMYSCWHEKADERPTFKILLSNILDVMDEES

time to degrade BTK / reach maximum degradation (BTK): 2 to 4 h
Compound: Nc1ncnc2c1c(-c1ccc(Oc3ccccc3)cc1)nn2C1CCCN(C(=O)C=CCOCCOCCOCCOCCOCCOc2cccc3c2C(=O)N(C2CCC(=O)NC2=O)C3=O)C1 (stereo not shown) [IR-1]

time to degrade BTK / reach maximum degradation (BTK): 2 to 4 h
Effective cellular concentration (Ramos cells): 4.1 ± 0.7 pg compound / µg total protein
Compound: Nc1ncnc2c1c(-c1ccc(Oc3ccccc3)cc1)nn2C1CCCN(C(=O)C=CCCCCOCCOCCOCCOCCOc2cccc3c2C(=O)N(C2CCC(=O)NC2=O)C3=O)C1 (stereo not shown) [IR-2]

time to degrade BTK / reach maximum degradation (BTK): 6 to 24 h
Compound: N#CC(=CCCCCOCCOCCOCCOCCOc1cccc2c1C(=O)N(C1CCC(=O)NC1=O)C2=O)C(=O)N1CCCC(n2nc(-c3ccc(Oc4ccccc4)cc3)c3c(N)ncnc32)C1 (stereo not shown) [RC-2]
Effective cellular concentration (Ramos cells): 0.93 ± 0.06 pg compound / µg total protein

The next lines start with the compound.

Compound: Nc1ncnc2c1c(-c1ccc(Oc3ccccc3)cc1)nn2C1CCCN(C(=O)CCCCCCOCCOCCOCCOCCOc2cccc3c2C(=O)N(C2CCC(=O)NC2=O)C3=O)C1 (stereo not shown) [NC-1]
time to degrade BTK / reach maximum degradation (BTK): 2 to 4 h
Effective cellular concentration (Ramos cells): 8.6 ± 2.6 pg compound / µg total protein
effective cellular concentration relative to IR-2 (Ramos cells): ~2 times
effective cellular concentration relative to RC-2 (Ramos cells): ~10 times

Compound: CC(C)(C=C(C#N)C(=O)N1CCCC(n2nc(-c3ccc(Oc4ccccc4)cc3)c3c(N)ncnc32)C1)CCCOCCOCCOCCOCCOc1cccc2c1C(=O)N(C1CCC(=O)NC1=O)C2=O (stereo not shown) [RC-3]
time to degrade BTK / reach maximum degradation (BTK): 2 to 4 h
Effective cellular concentration (Ramos cells): 10.7 ± 3.1 pg compound / µg total protein
effective cellular concentration relative to IR-2 (Ramos cells): ~2 times
effective cellular concentration relative to RC-2 (Ramos cells): ~10 times

Reference: paper PMC7349657, “Efficient Targeted Degradation via Reversible and Irreversible Covalent PROTACs” (Journal of the American Chemical Society, 2020)
